Test results reported in ChEMBL document CHEMBL2176951, “Molecular mechanisms of acquired proteasome inhibitor resistance” (J Med Chem, 2012).

Columns and labels:
[1] = biological target: T1, Proteasome Macropain subunit MB1 (Homo sapiens, UniProt P28074); assay: Reversible inhibition of human erythrocyte derived 20S proteasome subunit beta5 after 30 mins by fluorogenic assay
T1 sequence (P28074 whole entry): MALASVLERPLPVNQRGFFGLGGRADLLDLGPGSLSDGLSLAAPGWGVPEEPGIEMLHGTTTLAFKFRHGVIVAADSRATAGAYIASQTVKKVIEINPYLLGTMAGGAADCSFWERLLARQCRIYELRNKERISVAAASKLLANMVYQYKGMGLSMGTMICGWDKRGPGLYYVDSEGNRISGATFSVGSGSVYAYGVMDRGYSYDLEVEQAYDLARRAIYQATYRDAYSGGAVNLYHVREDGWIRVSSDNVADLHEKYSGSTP

Homo sapiens = species: Homo sapiens; assay: P-gp-mediated drug resistance in human CEM/VLB cells relative to control; format: cell-based
[2] = Effect on PSMB5 mRNA expression in human Jurkat-B cells expressing PSMB5 G322A mutant at 1000 nM relative to control; format: functional
THP-1 [3] = assay: Effect on PSMB5 mRNA expression in human THP1 cells at 30 nM relative to control; format: functional
THP-1 [4] = assay: Effect on PSMB5 mRNA expression in human THP1 cells at 200 nM relative to control; format: functional
RPMI-8226 [5] = assay: Effect on PSMB5 mRNA expression in human RPMI8226 cells at 7 nM relative to control; format: functional
THP-1 [6] = assay: Effect on 20S proteasome subunit beta5 expression in human THP1 cells at 50 nM relative to control; format: functional
SW1573 = assay: Effect on 20S proteasome subunit beta5 expression in human SW1573 cells at 150 nM relative to control; format: functional; settings: pooled result: one value given for 7 cell lines, strains, targets or settings
THP-1 [7] = assay: Effect on 20S proteasome subunit beta5 expression in human THP1 cells at 100 nM relative to control; format: functional
THP-1 [8] = assay: Effect on 20S proteasome subunit beta5 expression in human THP1 cells at 200 nM relative to control; format: functional
RPMI-8226 [9] = assay: Effect on PSMB5 mRNA expression in human RPMI8226 cells at 100 nM relative to control; format: functional
[10] = Effect on PSMB5 mRNA expression in human Jurkat-B cells expressing PSMB5 C323T mutant at 1000 nM relative to control; format: functional
HT-29 [11] = assay: Effect on 20S proteasome subunit beta5 expression in human HT-29 cells at 200 nM relative to control; format: functional
THP-1 [12] = assay: Effect on PSMB5 mRNA expression in human THP1 cells at 100 nM relative to control; format: functional
HT-29 [13] = assay: Effect on 20S proteasome subunit beta5 expression in human HT-29 cells at 100 nM relative to control; format: functional
THP-1 [14] = assay: Effect on 20S proteasome subunit beta5 expression in human THP1 cells at 30 nM relative to control; format: functional
THP-1 [15] = assay: Effect on PSMB5 mRNA expression in human THP1 cells at 50 nM relative to control; format: functional
RPMI-8226 [16] = assay: Resistance factor, ratio of IC50 for 100 nM bortezonib-resistant human RPMI8226 cells harboring proteosome subunit beta5 A49T mutant to IC50 for wild type human RPMI8226 cells; format: functional
[17] = biological target: Proteasome Macropain subunit (Homo sapiens) (UniProt P49721); assay: Ratio of Kinact to Ki for human 20S proteasome subunit beta2
Proteasome Macropain subunit (Homo sapiens), sequence (P49721 whole entry): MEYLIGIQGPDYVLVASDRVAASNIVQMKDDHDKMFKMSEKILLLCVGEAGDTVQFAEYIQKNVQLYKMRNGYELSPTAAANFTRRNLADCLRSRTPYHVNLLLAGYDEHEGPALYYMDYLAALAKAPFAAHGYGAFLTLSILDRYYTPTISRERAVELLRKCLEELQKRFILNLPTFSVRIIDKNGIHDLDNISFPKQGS

[18] = biological target: T2, Proteasome component C5 (Homo sapiens) (UniProt P20618); assay: Ratio of Kinact to Ki for human 20S proteasome subunit beta1
T2 sequence (whole entry): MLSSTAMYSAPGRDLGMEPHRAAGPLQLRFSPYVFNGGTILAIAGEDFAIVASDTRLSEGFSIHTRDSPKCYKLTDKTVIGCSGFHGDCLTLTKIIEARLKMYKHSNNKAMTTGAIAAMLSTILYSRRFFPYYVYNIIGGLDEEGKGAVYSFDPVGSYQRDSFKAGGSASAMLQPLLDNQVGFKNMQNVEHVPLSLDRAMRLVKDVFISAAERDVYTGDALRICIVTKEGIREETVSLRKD

[19] = biological target: T3, Proteasome Macropain subunit MB1 (Homo sapiens) (UniProt P28074); assay: Ratio of Kinact to Ki for human 20S proteasome subunit beta5
T3 sequence (whole entry): T1 sequence (P28074 whole entry)

Compound: CC(C)C[C@H](NC(=O)[C@@H](NC(=O)c1cccc(-c2ccccc2)n1)[C@@H](C)O)B(O)O [DELANZOMIB]
- IC50 [1]: 3.5 nM

Compound: COC[C@H](NC(=O)c1cnc(C)s1)C(=O)N[C@@H](COC)C(=O)N[C@@H](Cc1ccccc1)C(=O)[C@@]1(C)CO1
- fold change (FC) (Homo sapiens): 23

Compound: CC(C)C[C@H](NC(=O)[C@H](Cc1ccccc1)NC(=O)c1cnccn1)B(O)O [BORTEZOMIB]
- fold change (FC) [2]: 1.7
- fold change (FC) (THP-1 [3]): 0.4
- fold change (FC) (THP-1 [4]): 0.9
- fold change (FC) (RPMI-8226 [5]): 5
- fold change (FC) (THP-1 [6]): 60
- fold change (FC) (SW1573): 1.3
- fold change (FC) (THP-1 [7]): 60
- fold change (FC) (THP-1 [8]): 60
- fold change (FC) (RPMI-8226 [9]): 15
- fold change (FC) [10]: 0.9
- fold change (FC) (HT-29 [11]): 3
- fold change (FC) (THP-1 [12]): 0.6
- fold change (FC) (HT-29 [13]): 3
- fold change (FC) (THP-1 [14]): 60
- fold change (FC) (THP-1 [15]): 0.5

Compound: CC(C)C[C@H](NC(=O)[C@H](CCc1ccccc1)NC(=O)CN1CCOCC1)C(=O)N[C@@H](Cc1ccccc1)C(=O)N[C@@H](CC(C)C)C(=O)[C@@]1(C)CO1 [CARFILZOMIB]
- Ratio IC50 (RPMI-8226 [16]): 9.7
- Ratio [17]: < 100 M⁻¹ s⁻¹
- Ratio [18]: < 100 M⁻¹ s⁻¹
- Ratio [19]: 33000 M⁻¹ s⁻¹
- fold change (FC) (Homo sapiens): 114
